Data reported in patent publication US4798898A, “Antitussive and mucus regulating 2-substituted thiazolidines” (Boehringer Biochemia Robin S.p.A., priority 1984, dated 1989).
Where a name gives a salt, the structure may show the parent alone.

Experiments:
[1] = system: cough induced by citric acid aerosol in guinea pigs; assay: Guinea pig cough test (citric acid aerosol, Charlier procedure); type: in vivo; conditions: Cavia porcellus, inhaled or nasal, antitussive test not given
[2] = system: guinea pig trachea smooth muscle strips; assay: In vitro relaxation of guinea pig trachea smooth muscle strips contracted by methacoline; conditions: for EC50: Cavia porcellus, contracted by methacoline, read-out: ED50 (relaxation of trachea smooth muscle strips)
[3] = system: bronchospasm induced by i.v. histamine; assay: Resolution of bronchospasm induced by i.v. histamine in anesthetized guinea-pigs (Konzett-Ressler test); type: in vivo; conditions: intrajugular administration; more active than aminophylline
[4] = system: pathological sputum of bronchitic rabbits; assay: Mucus regulating properties in bronchitic rabbits (sputum AUC as % compared to bronchitic controls); type: in vivo, male New Zealand white rabbits; conditions: for Fucose (mg/ml), AUC as a 100% compared to bronchitic controls / Galactose (mg/ml), AUC as a 100% compared to bronchitic controls / Mucus production (ml/kg), AUC as a 100% compared to bronchitic controls / Phospholipids (mg/ml), AUC as a 100% compared to bronchitic controls / Protein (mg/ml), AUC as a 100% compared to bronchitic controls / Sialic acid (mg/ml), AUC as a 100% compared to bronchitic controls / Viscosity (cps), AUC as a 100% compared to bronchitic controls: Table 2, oral, equimolecular amounts to S-carboxymethyl cysteine; for mucus regulating activity (in words): rabbit, in vivo
Experimental: The animals are submitted to inhalation of a 5% H2 SO3 aqueous solution by aerosol (exposition of 3 hours a day for 3 alternate days), to induce a chronic bronchial inflammatory disease which causes a production of pathological sputum in the bronchial tree.
Aim of the experiments is to evaluate modifications of selective parameters such as dry weight of the sputum, viscosity, content in proteins, phospholipids, galactose, sialic acid and fucose, induced in this pathological sputum by pharmacological treatment with the compounds of the invention.
To this purpose, the sputum produced in the bronchial tree is collected daily, through a "T" shaped glass cannula, inserted in the trachea, before and after oral twice a day (9.00 a.m. and 4.00 p.m.) treatment with one of the compounds of the invention.
The schedule treatment procedure is shown in the following Scheme 1: [drawing 21] where 0 indicates the day of implantation of the tracheal cannula; -7-5-3 indicate the days of H2 SO3 treatment (H); 1, 2, 3, 4 indicate the days of oral administration of the compounds of the invention (T) and the time of mucus collection (M).
The mucus collected in day 1 in the morning is considered as a blank; 7 indicates the day of the animal sacrifice after the mucous collection.
The sputum samples are stored in the freezer (-20° C.) until the investigation of biological and rheological parameters is carried out.
The samples are investigated for relative viscosity, measured at 37° C. with a Brookfield viscometer (model LT VD) equipped with a 1,565° cone-plate, and aliquoted for biochemical analysis of protein, phospholipids, galactose, sialic acid and fucose contents. Dry weight of the mucus is also determined. For each parameter, cumulative data are referred to a seven days period after the beginning of the treatment and they are extrapolated using the AUC method (area under curve) calculated by the trapazoidal rule. Finally the data are compared with data obtained from controls (vehicle treatment), non bronchitic rabbits (vehicle treatment) and positive controls bronchitic rabbits treated with 0.153M […].

[5] = system: mice; assay: Sedative effect; type: in vivo
[6] = Acute toxicity in mice; conditions: mouse, in vivo
[7] = system: cough induced by electric stimulation in dogs; assay: Dog cough test (cough induced by electric stimulation, Stefko procedure); type: in vivo, conscious mongrel dogs; conditions: for duration of action (antitussive): test not named; for duration of action: in words; for % inhibition of cough stimulus: dog, oral, dose not given
Experimental: (§1) The techniques described by Charlier et al. (Arch. Int. Pharmacodyn. 134, 306, 1961) and by Stefko et al. (J. Pharm. Exp. Therap., 108, 217, 1953), adapted with minor modifications, are used to investigate the antitussive properties of the compounds of the invention. Codeine phosphate is used as positive reference compound.
In the Stefko procedure, conscious mongrel dogs (15±3 kg body weight) are used; the compounds of the invention are tested for their ability to inhibit cough induced by electric stimulation.
Under general anesthesia, two insulated nichrome wires (0.4 mm diameter) are surgically implanted into the submucosa of the trachea.
About two days later, the dogs are placed in a sling and the exteriorized electrodes are connected to an electric stimulating device (such as Grass S 48 Mod.).
The stimulation parameters such as: delay 0.01 msec, duration 1 msec, frequency 30 Hz, are used.
An electrical stimulus of 1 sec is applied 10 times at 5 sec intervals in order to determine the minimum voltage necessary for eliciting reproducible cough responses. Then, tussive responses to the electrical stimuli are registered at 15, 30, 60, 90, 120, 150, 180, 240, 300 and 360 minutes after oral administration of the compounds of the invention.
The tussive responses are scored as follows: 1: no response; 2: sigh or exaggerated expiration; 3: marked cough; 4: one marked cough and one exaggerated expiration: 5: two marked coughs.
Six dogs are employed for each determination and the mean activity is calculated.
The inhibition percent of the cough response and the duration of activity are compared with codeine.

[8] = system: cough induced by citric acid aerosol in guinea pigs; assay: Guinea pig cough test (citric acid aerosol, Charlier procedure); type: in vivo; conditions: guinea pig cough test, i.p., 60 minutes after treatment
Experimental: as §1
According to the Charlier procedure guinea pigs are exposed to a citric acid aerosol (7.5%) and cough is recorded 60 minutes after the antitussive treatment by i.p. route. Male animals of 300-400 g pigs are placed in perspex box (20×30×30 cm) connected to an aerosol compressor; the animals are subjected to a citric acid saturated atmosphere, 60 minutes after the i.p. injection of a compound of the invention (0.1 and 0.3M solutions; 1 ml/kg).
The total number of cough strokes and the delay of the first cough are recorded during the first five minutes.
Five guinea pigs are used for each dose level and the results are compared with controls (vehicle treatment) and codeine phosphate 0.07M solution (standard treatment).
ED50 and the corresponding delay of first cough stroke are calculated.
The data obtained by i.p. administration are confirmed by oral administration.

## COc1ccccc1OCC1SCCN1C(=O)OC(C)(C)C (stereo not drawn) [3-BOC-2-(O-methoxyphenoxy)-methyl-thiazolidine]
[1]
  ED50: 3 to 30 mg/kg

## COc1ccccc1OCC1SCCN1C(=O)CNC(C)=O (stereo not drawn) [3-(N-acetylaminoacetyl)-2-(O-methoxyphenoxy)methyl-thiazolidine]
[1]
  ED50: 3 to 30 mg/kg

## COc1ccccc1OCC1SCCN1C(=O)C=Cc1cc(CN2CCOCC2)c(O)c(OC)c1 (stereo not drawn) [3-(3'-morpholinomethyl-4'-hydroxy-3'-methoxy-cinnamoyl)-2-(O-methoxyphenoxy)methylthiazolidine hydrochloride]
[2]
  spasmolytic activity (in words): favourably compares with that of dihydroxypropyltheophylline
  EC50: 190 µM
[3]
  activity relative to aminophylline in the resolution of bronchospasm: 3-6 times

## CCOC(=O)[C@@H]1CSC(COc2ccccc2OC)N1C(=O)CSC(C)=O (stereo partly drawn) [4-carbethoxy-2-(o-methoxyphenoxy)methyl-3-acetylthioacetyl-thiazolidine]
[4]
  Fucose (mg/ml), AUC as a 100% compared to bronchitic controls: 111%
  Galactose (mg/ml), AUC as a 100% compared to bronchitic controls: 69%
  Mucus production (ml/kg), AUC as a 100% compared to bronchitic controls: 65%
  Phospholipids (mg/ml), AUC as a 100% compared to bronchitic controls: 102%
  Protein (mg/ml), AUC as a 100% compared to bronchitic controls: 79%
  Sialic acid (mg/ml), AUC as a 100% compared to bronchitic controls: 78%
  Viscosity (cps), AUC as a 100% compared to bronchitic controls: 91%
[5]
  sedative effect, starting dose: ≥ 30 mg/kg
[6]; ip
  LD50: 670 mg/kg
[6]; po, os
  LD50: 760 mg/kg

## COc1ccccc1OCC1SCCN1C(=O)CCNCCNCCO (stereo not drawn) [3-(3-(2-hydroxyethylamino)ethyl)aminopropanoyl-2-((O-methoxyphenoxy)methyl-thiazolidinebis maleate]
[7]
  duration of action (antitussive): very prolonged duration of action
[1]
  ED50: 3 to 6 mg/kg

## C#CCOc1ccccc1OCC1SCCN1C(=O)CCNCCNCCO (stereo not drawn)
[7]
  duration of action (antitussive): very prolonged duration of action
[1]
  ED50: 3 to 6 mg/kg

## COc1ccccc1OCC1SCCN1C(=O)CN (stereo not drawn) [3-glycinyl-2-(O-methoxyphenoxy)methyl-thiazolidine]
[1]
  ED50: 3 to 30 mg/kg

## C=CCOc1ccccc1OCC1SCCN1C(=O)CN (stereo not drawn)
[1]
  ED50: 3 to 30 mg/kg

## Cn1c(=O)c2c(ncn2CC(O)CO)n(C)c1=O (stereo not drawn) [dihydroxypropyltheophylline, reference compound]
[2]
  EC50: 76 µM

## O=C(Cn1ccnc1)N1CCSC1COc1ccccc1O (stereo not drawn) [3-(imidazol-1'-yl)acetyl-2-[(o-hydroxyphenoxy)methyl]thiazolidone]
[1]
  ED50: 96 mg/kg
[4]
  mucus regulating activity (in words): strong mucus regulating activity

## COc1ccccc1OCC1SCCN1C(=O)Cn1ccnc1 (stereo not drawn) [3-(imidazol-1-yl)acetyl-2-(o-methoxyphenoxy)methyl-thiazolidine]
[1]
  ED50: 40.6 mg/kg
[4]
  Fucose (mg/ml), AUC as a 100% compared to bronchitic controls: 97.5%
  Galactose (mg/ml), AUC as a 100% compared to bronchitic controls: 21.8%
  Mucus production (ml/kg), AUC as a 100% compared to bronchitic controls: 162.5%
  Phospholipids (mg/ml), AUC as a 100% compared to bronchitic controls: 65.8%
  Protein (mg/ml), AUC as a 100% compared to bronchitic controls: 55.2%
  Sialic acid (mg/ml), AUC as a 100% compared to bronchitic controls: 63.8%
  Viscosity (cps), AUC as a 100% compared to bronchitic controls: 39.1%
  mucus regulating activity (in words): strong mucus regulating activity

## CCOC(=O)[C@@H]1CSC(COc2ccccc2OC)(COc2ccccc2OC)N1 [2,2-di(o-methoxyphenoxy)methyl-4-carbethoxythiazolidine]
[1]
  ED50: 116 mg/kg

## COc1ccccc1OCC1(COc2ccccc2OC)SCCN1C(=O)CSC(C)=O
[7]; dog cough test
  duration of action: very prolonged action
[7]; dog cough test, longer than codeine phosphate
  duration of action relative to codeine phosphate: 2-3 times
[7]
  % inhibition of cough stimulus: 13%
[1]
  ED50: 230 mg/kg

## COc1ccccc1OCC1N[C@H](C(=O)O)CS1 (stereo partly drawn) [4-carboxy-2-(o-methoxyphenoxymethyl)thiazolidine]
[7]; dog cough test
  duration of action: middle
[7]
  % inhibition of cough stimulus: 43.8%
[4]
  Fucose (mg/ml), AUC as a 100% compared to bronchitic controls: 55%
  Galactose (mg/ml), AUC as a 100% compared to bronchitic controls: 29%
  Mucus production (ml/kg), AUC as a 100% compared to bronchitic controls: 95%
  Phospholipids (mg/ml), AUC as a 100% compared to bronchitic controls: 49%
  Protein (mg/ml), AUC as a 100% compared to bronchitic controls: 48%
  Sialic acid (mg/ml), AUC as a 100% compared to bronchitic controls: 52%
  Viscosity (cps), AUC as a 100% compared to bronchitic controls: 40%
[8]
  ED50: inactive
